# Patent publication US8158621B2, “Methods of treating or preventing autoimmune diseases with 2,4-pyrimidinediamine compounds” (Rigel Pharmaceuticals, Inc., priority 2002, dated 2012)
# Several values for one entry are separate records, joined by “and”; a condition that tells them apart may be missing. Equal entries are not always repeated.
# Tested on: cultured human mast cells (CHMC)
# Assay: CHMC low cell density IgE activation: tryptase assay
# Format: cell-based
# Conditions: low cell density; read-out: CHMC anti-IgE Tryptase
# In short: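 Degranulation was triggered with anti-IgE for 30 minutes at 37° C in cultured human mast cells seeded at low density (1000-1500 cells/well, chosen by donor) after a 1 hr equilibration in MT buffer. Released tryptase in cleared supernatant was quantified with a tryptase substrate at room temperature for 30 minutes.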
row,SMILES,IC50 [µM]
1,Fc1cnc(Nc2ccc(OCc3ccccc3)c(Cl)c2)nc1Nc1ccc(OCc2ccccc2)c(Cl)c1 [Compound R926965],> 10
2,CC1(C)Oc2ccc(Nc3nc(Nc4ccc5cc[nH]c5c4)ncc3F)cc2NC1=O [Compound R926982],0.12

# Tested on: not listed separately
# Assay: Mouse Reverse Passive Arthus reaction (RPA reaction)
# Format: in vivo, C57BL/6 mice
# Conditions: oral, 200 mg/kg, 60 minutes prior to challenge
# Description: In this model system, test compounds are administered at several timepoints prior to administration of Abs and Ags. A solution of rabbit anti-OVA IgG (50 μg in 25 μl/mouse) is injected intradermally, and immediately following is an intravenous injection of chicken egg albumin (20 mg/kg of body weight) in a solution containing 1% Evans blue dye. The degree of edema and hemorrhage is measured in the dorsal skin of C57BL/6 mice using the Evan's Blue dye as an indicator of local tissue damage. Purified polyclonal rabbit IgG is used as a control.
# Pretreatment time, in which the test compounds are administered prior to Ab/Ag challenge, depends on the pharmacokinetic (PK) properties of each individual compound. Four hours after induction of Arthus reaction, mice are euthanized, and tissues are harvested for assessment of edema.
row,SMILES,inhibition of edema formation [%]
1,CNC(=O)COc1cccc(Nc2ncc(F)c(Nc3ccc4c(c3)NC(=O)C(C)(C)O4)n2)c1 [Compound R940323],32.4

# Same assay, conditions: oral, 200 mg/kg, pretreatment time 0.5 hrs
row,SMILES,% inhibition to vehicle control Edema Size ± SEM [%]
1,CNC(=O)COc1cccc(Nc2ncc(F)c(Nc3ccc4c(c3)NC(=O)C(C)(C)O4)n2)c1 [Compound R940323],5.5 ± 9.3

# Same assay, conditions: oral, 200 mg/kg, pretreatment time 1 hrs
row,SMILES,% inhibition to vehicle control Edema Size ± SEM
1,CNC(=O)COc1cccc(Nc2ncc(F)c(Nc3ccc4c(c3)NC(=O)C(C)(C)O4)n2)c1 [Compound R940323],32.4 ± 13.0% and 32.4%

# Same assay, conditions: oral, 200 mg/kg, pretreatment time 2 hrs
row,SMILES,% inhibition to vehicle control Edema Size ± SEM [%]
1,CNC(=O)COc1cccc(Nc2ncc(F)c(Nc3ccc4c(c3)NC(=O)C(C)(C)O4)n2)c1 [Compound R940323],26.9 ± 11.2

# Tested on: IgE-induced degranulation of tissue mast cells
# Assay: Mouse model of passive cutaneous anaphylaxis (PCA)
# Format: in vivo
# Conditions: positive controls
# Description: This model provides a direct measure of IgE-induced degranulation of tissue mast cells. In this model, IgE primed animals are exposed to an allergen challenge, and the change in permeability of dermal vasculature that results from histamine release from mast cells is measured by change in the amount of dye leakage into surrounding tissue. Inhibition of mediator release by compounds that modulate mast cell degranulation is easily measured by extracting the dye from the tissue.
# In the PCA assay mice are passively sensitized by intradermal injection with anti-dinitrophenol (DNP) IgE antibodies (Day −1). At predetermined times animals are treated with the test agent (Day 0). The modulatory effect of the agent on cutaneous mast cell degranulation is measured following intravenous injection of DNP conjugated to human serum albumin (HSA-DNP), together with Evans blue dye. The resulting cross-linking of the IgE receptor and subsequent mast cell degranulation-induced increase in vascular permeability is determined by measuring the amount of dye extravasation into the tissue. Dye is extracted from the tissue by formamide, and the absorbance of this extract is read at 620 nm.
row,SMILES,PCA response
1,"CN(C)CCOC(c1ccccc1)c1ccccc1 [diphenhydramine, reference compound]",inhibit the PCA response

# Tested on: Primary human B-cells
# Assay: Primary B-cell activation (α-IgM, CD69 upregulation)
# Format: cell-based
# Conditions: Homo sapiens, B-cell, read-out: 1° B-Cell CD69 IC50
# Description: Primary human B-cells were isolated from buffy coat, the white cell layer that forms between the red cells and the […] when anti-coagulated blood is centrifuged, or from fresh blood using CD19-Dynal® beads and a FACS. Buffy coat was obtained from the Stanford Medical School Blood Centre, prepared on the same day by the blood bank, stored and transported cold (with ice). The buffy coat (approx 35 mL) was placed in a 500 mL conical sterile centrifuge pot and cooled on ice, then diluted with cold PBS containing 0.2% BSA (Sigma: A7638) and sodium citrate (0.1%, Sigma: S-5570) (P—B—C) to a total volume of 200 mL and mixed gently. Fresh blood was collected from donors in 10 mL vacutainers containing heparin (1 vacutainer collects approximately 8.5 mL blood). The blood was cooled on ice, transferred into 50 mL falcon tubes (20 mL/tube) or a 500 mL conical sterile centrifuge pot, and diluted with an equal volume P—B—C.
# 25 mL diluted blood or buffy coat was layered onto 15 mL cold ficoll and placed back on ice. The ficoll layered blood was centrifuged (Beckman GS-6R) for 45 minutes at 2000 rpm, 4° C. to separate the Peripheral Blood Mononuclear Cells (PBMC) from the Red Blood Cells (RBC) and granulocytes. The top aqueous layer was then aspirated until 1 inch above the PBMC layer. The PBMCs were transferred from every 2 ficoll tubes into one clean 50 mL falcon tube (=approx 10 mL/tube). The transferred PBMCs were diluted 5× with icecold PBS with 0.2% BSA (P—B) and centrifuged for 20 min at 1400 rpm and 4° C. The supernatant (this may be cloudy) was then aspirated and the PBMCs resuspended into 25 mL P—B and the cells counted (using a 1:5 dilution) and kept on ice.
# The cells were then positively selected using anti-CD 19 antibody coupled to magnetic beads (Dynal®) as per manufacturer's instructions. The approximate required amount of CD19-Dynal® beads (CD19-coated dyna beads M-450 (pabB), Dynal®) was calculated by estimating the number of B-cells as 5% of PBMCs counted and adding approximately10 beads per cell from the bead stock (4×10^8 beads/mL). The CD19-Dynal® beads were washed 2× in P—B in a 5 mL tube using the Dynal® magnet, then added into the suspended PBMCs. This mixture was then passed through the Dynal® magnet and washed several times to separate the bead-bound cells.
# After separation, the beads and antibody were removed using Dynal® CD19-DETACHaBEAD® for 45 min at 30° C. Yield is typically 2×10^7 B-cells per buffy coat. B-cells were washed and resuspended as 1E6 cells/mL in RPMI1640+10% FBS+Penicillin/[…]+1 ng/mL IFNα8. Cells were rested overnight at 37° C. and 5% CO2.
# The following day, cells were washed and resuspended in RPMI+2.5% FBS to 1×10^6 cells/mL. Cells were then aliquoted into a V-bottom 96-well plate (Corning) at 65 uL cells per well. By robot, 65 uL of a 2× compound was added to the cells with final concentration of DMSO at 0.2%, and incubated for 1 hr at 37° C. Cells were then stimulated with 20 uL 7.5× α-IgM from Jackson laboratories (final 5 ug/mL) for 24 hrs. At day 3, the cells were spun down and stained for CD69 and analyzed by FACS gated on the live cells (by light scatter).
# Varied concentrations of compound were compared to solvent only to determine the inhibition of B-cell activation IC50 of each compound.
row,SMILES,IC50 [µM]
1,CCOc1ccc(Nc2nc(Nc3ccc4c(c3)OCCO4)ncc2F)cc1 [Compound R926213],44

# Same assay, conditions: read-out: 1° B-Cell CD69 IC50
row,SMILES,IC50 [µM]
1,COc1cc(Nc2ncc(F)c(Nc3ccc4c(c3)NC(=O)[C@H](C)O4)n2)cc(OC)c1 [Compound R908953],1.98
2,CC1(C)Oc2ccc(Nc3nc(Nc4ccc5cc[nH]c5c4)ncc3F)cc2NC1=O [Compound R926982],0.394
3,CNC(=O)COc1cccc(Nc2ncc(F)c(Nc3ccc4c(c3)NC(=O)C(C)(C)O4)n2)c1 [Compound R940323],0.11

# Tested on: cultured human mast cells (CHMC)
# Assay: CHMC low cell density ionomycin activation: tryptase assay
# Format: cell-based
# Conditions: low cell density; read-out: CHMC Ionomycin Tryptase
row,SMILES,IC50 [µM]
1,Fc1cnc(Nc2ccc(OCc3ccccc3)c(Cl)c2)nc1Nc1ccc(OCc2ccccc2)c(Cl)c1 [Compound R926965],> 10
2,CC1(C)Oc2ccc(Nc3nc(Nc4ccc5cc[nH]c5c4)ncc3F)cc2NC1=O [Compound R926982],> 10
3,CNC(=O)CCn1ncc2cc(Nc3ncc(F)c(Nc4ccc(F)c(F)c4)n3)ccc21 [Compound R935385],> 10
4,CNC(=O)COc1cccc(Nc2ncc(F)c(Nc3ccc(N4CCOCC4)cc3)n2)c1 [Compound R945367],> 10
5,CNC(=O)COc1cccc(Nc2ncc(F)c(Nc3ccc(N4CCN(C(=O)OC)CC4)cc3)n2)c1 [Compound R945368],> 10
6,CC(=O)N(C)c1ccc(Nc2ncc(F)c(NC3CC3)n2)cc1 [Compound R945369],> 10
7,CNC(=O)COc1cccc(Nc2ncc(F)c(NC3CC3)n2)c1 [Compound R945372],> 10
8,CNC(=O)COc1cccc(Nc2ncc(F)c(Nc3ccc(OC(F)(F)F)c(C(=O)NCCN)c3)n2)c1 [Compound R950406],> 10
9,CNC(=O)COc1cccc(Nc2ncc(F)c(Nc3ccc(OC(F)(F)F)c(C(=O)NC)c3)n2)c1 [Compound R950407],> 10
10,CNCCNC(=O)c1cc(Nc2nc(Nc3cccc(OCC(=O)NC)c3)ncc2F)ccc1OC(F)(F)F [Compound R950408],> 10
11,CNC(=O)COc1cccc(Nc2ncc(F)c(Nc3ccc(OC(F)(F)F)c(C(=O)N4CCCCC4)c3)n2)c1 [Compound R950409],> 10
12,CNC(=O)COc1cccc(Nc2ncc(F)c(Nc3ccc(OC(F)(F)F)c(C(=O)NC[C@@H](O)CO)c3)n2)c1 [Compound R950410],> 10
13,CNC(=O)COc1cccc(Nc2ncc(F)c(Nc3ccc(OC(F)(F)F)c(C(=O)N4CCOCC4)c3)n2)c1 [Compound R950411],> 10

# Tested on: bone marrow derived mast cells (BMMC)
# Assay: BMMC high cell density IgE activation: hexosaminidase
# Format: cell-based, mouse
# Conditions: high cell density; read-out: BMMC anti-IgE Hexos.
# Description: After sensitizing, cells are counted, pelleted (1000 rpm, 5-10 minutes), and resuspended at 1-3×10^6 cells/ml in MT buffer. Add 100 ul of cell suspension to each well and 100 ul of compound dilutions. The final vehicle concentration is 0.5% DMSO. Incubate at 37° C. (5% CO2) for 1 hour. After 1 hour of compound treatment, stimulate cells with 6× stimulus (60 ng/ml DNP-BSA). Mix wells with the cells and allow plates to incubate at 37° C. (5% CO2) for one hour. After 1 hour incubation, pellet cells (10 minutes, 1000 RPM) and collect 200 ul per well of the supernatant, being careful not to disturb pellet, and transfer to a clean tube or 96-well plate. Place the supernatant plate on ice. During the 4-5 hour step (see next) perform the hexosiminidase assay. Resuspend cell pellet in 240 ul WEI-conditioned media containing 0.5% DMSO and corresponding concentration of compound. Incubate BMMC cells for 4-5 hours at 37° C. (5% CO2). After incubation, pellet cells (1000 RPM, 10 minutes) and collect 225 ul per well and place in −80° C. until ready to perform ELISAS. ELISAS are performed on appropriately diluted samples (determined empirically for each donor cell population so that the sample measurement falls within the standard curve) following the supplier's instructions.
# Add 50 uL of BMMC cell supernatant (see above) to the hexoseaminidase substrate, place at 37° C. for 30 minutes and read the plate at 5, 10, 15, and 30 minutes on a spectrophotometer.
row,SMILES,IC50 [µM]
1,Fc1cnc(Nc2ccc(OCc3ccccc3)c(Cl)c2)nc1Nc1ccc(OCc2ccccc2)c(Cl)c1 [Compound R926965],> 10
2,CNC(=O)CCn1ncc2cc(Nc3ncc(F)c(Nc4ccc(F)c(F)c4)n3)ccc21 [Compound R935385],0.217
3,CNC(=O)COc1cccc(Nc2ncc(F)c(Nc3ccc(N4CCOCC4)cc3)n2)c1 [Compound R945367],1.29
4,CNC(=O)COc1cccc(Nc2ncc(F)c(Nc3ccc(N4CCN(C(=O)OC)CC4)cc3)n2)c1 [Compound R945368],1.71
5,CC(=O)N(C)c1ccc(Nc2ncc(F)c(NC3CC3)n2)cc1 [Compound R945369],1.27
6,CNC(=O)COc1cccc(Nc2ncc(F)c(NC3CC3)n2)c1 [Compound R945372],0.923
7,CNC(=O)COc1cccc(Nc2ncc(F)c(Nc3ccc(OC(F)(F)F)c(C(=O)NCCN)c3)n2)c1 [Compound R950406],> 10
8,CNC(=O)COc1cccc(Nc2ncc(F)c(Nc3ccc(OC(F)(F)F)c(C(=O)NC)c3)n2)c1 [Compound R950407],> 10
9,CNCCNC(=O)c1cc(Nc2nc(Nc3cccc(OCC(=O)NC)c3)ncc2F)ccc1OC(F)(F)F [Compound R950408],4.82
10,CNC(=O)COc1cccc(Nc2ncc(F)c(Nc3ccc(OC(F)(F)F)c(C(=O)N4CCCCC4)c3)n2)c1 [Compound R950409],3.24
11,CNC(=O)COc1cccc(Nc2ncc(F)c(Nc3ccc(OC(F)(F)F)c(C(=O)NC[C@@H](O)CO)c3)n2)c1 [Compound R950410],> 10
12,CNC(=O)COc1cccc(Nc2ncc(F)c(Nc3ccc(OC(F)(F)F)c(C(=O)N4CCOCC4)c3)n2)c1 [Compound R950411],4

# Target: T1, Syk kinase (Homo sapiens, UniProt P43405)
# T1 construct: purchased Upstate, Lake Placid NY
# Assay: Syk kinase biochemical fluorescence polarization assay
# Conditions: isolated Syk kinase, fluorescence polarization, 4 uM ATP
row,SMILES,IC50 [µM]
1,COc1cc(Nc2ncc(F)c(Nc3ccc4c(c3)NC(=O)[C@H](C)O4)n2)cc(OC)c1 [Compound R908953],0.017
2,CC1(C)Oc2ccc(Nc3nc(Nc4ccc5cc[nH]c5c4)ncc3F)cc2NC1=O [Compound R926982],0.028
3,CC(=O)N(C)c1ccc(Nc2ncc(F)c(NC3CC3)n2)cc1 [Compound R945369],1.85

# Tested on: Human Jurkat T-cells (clone N)
# Assay: Jurkat T-cell activation (anti-TCR, CD69 upregulation)
# Format: cell-based
# Conditions: not given
# In short: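 Readout is CD69 upregulation by flow cytometry (anti-CD69-APC, 20 min at 4 °C) after 20 h anti-TCR (C305, 500 ng/ml) stimulation at 37 °C.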
row,SMILES,IC50 [µM]
1,CNC(=O)COc1cccc(Nc2ncc(F)c(Nc3ccc4c(c3)NC(=O)C(C)(C)O4)n2)c1 [Compound R940323],0.557

# Same assay, conditions: Homo sapiens, Jurkat
row,SMILES,IC50 [µM]
1,CCOc1ccc(Nc2nc(Nc3ccc4c(c3)OCCO4)ncc2F)cc1 [Compound R926213],8.86
